Measurements published in paper PMC12592502, “Unraveling the mechanisms behind the enhanced efficacy of β-lactam-based sideromycins” (Communications Biology, 2025).
In brackets after ≈: the same amount, converted by molar mass. Where two headings read alike, the source gives them in different places.

Assays:
[1] = test system: E. coli ATCC 25922; assay: MIC, broth microdilution (CLSI); assay type: cell-based, Escherichia coli; settings: for MIC: Escherichia coli; for MIC ratio unconjugated β-lactam/conjugate / MIC ratio 0/1 / MIC ratio 1/0: ID-MHBCA; for MIC ratio 0/1: 0 and 1 µg/mL supplemental iron (Table S2); for MIC ratio 1/0: 1 versus 0 µg/mL supplemental iron (peer review file table); for MIC ratio unconjugated β-lactam/conjugate (AMP/BAMP, LOR/BLOR, CEF/MCEF): MHBCA
Protocol: (§1) All bacterial strains (see description and sources Table S1) were stored at −80 °C, and grown on tryptone soya agar (TSA) at 35 °C. The iron-deprived (ID)-MHBCA (cation-adjusted Muller-Hinton Broth, Becton Dickinson, Mississauga, ON, Canada) medium was prepared as reported by refs. [21],[50]. Briefly, MHBCA was treated with 10% Chelex® 50-100 mesh (Sigma) and stirred for 6 h at room temperature. The resin was removed by filtration. Divalent Ca^2+ (CaCl2), Mg^2+ (MgCl2), and Zn^2+(ZnSO4), were then added in the iron-depleted medium at 22, 12, and 1 μg/ml respectively. Finally, the pH was adjusted to 7.3, and the medium was sterilized with a 0.2-μm filter. Regular MHBCA (i.e., not treated with Chelex®) was used to compare the inhibitory activity of conjugates in iron-sufficient conditions.
(§2) Minimal inhibitory concentrations (MICs) were performed using a broth microdilution technique according to the Clinical and Laboratory Standards Institute (CLSI) guidelines. MICs were determined in MHBCA and in ID-MHBCA. To check the impact of β-lactamases, MICs in the presence of a β-lactamase inhibitor were also determined. The inhibitor was homogenized at 2X the final concentration and added to the bacterial inoculum just before distributing cells into the wells containing the drug dilutions. The final concentration of each inhibitor was 4 μg/mL for clavulanic acid (tested against K. pneumoniae) and 200 μg/mL for 3-aminophenylboronic acid (tested against P. aeruginosa and A. baumannii).

[2] = test system: A. baumannii ATCC 19606; assay: MIC, broth microdilution (CLSI); assay type: cell-based, Acinetobacter baumannii; settings: for MIC in combination with PAβN: + 25 µg/mL PAβN; for MIC ratio 0/1: 0 and 1 µg/mL supplemental iron (Table S2); for MIC ratio 1/0: 1 versus 0 µg/mL supplemental iron (peer review file table)
Protocol: as §1, with “conditions. The resin used for Chelex treatment was always fresh and had never been regenerated, ensuring consistent iron removal.” for “conditions.”
as §2

[3] = test system: E. coli ΔampC; assay: MIC, Keio mutant; assay type: cell-based, Escherichia coli; settings: Escherichia coli
Protocol: as §1, with “conditions. The resin used for Chelex treatment was always fresh and had never been regenerated, ensuring consistent iron removal.” for “conditions.”
as §2

[4] = test system: E. coli ΔacrAB; assay: MIC, efflux pump mutant; assay type: cell-based, Escherichia coli; settings: Escherichia coli
Protocol: as §2

[5] = test system: P. aeruginosa 1020; assay: MIC, parent of efflux pump mutants; assay type: cell-based, Pseudomonas aeruginosa; settings: Pseudomonas aeruginosa
Protocol: as §2

[6] = test system: P. aeruginosa 1624 ΔmexCD-oprJ, ΔmexEF-oprN; assay: MIC, efflux pump mutant; assay type: cell-based, Pseudomonas aeruginosa; settings: Pseudomonas aeruginosa
Protocol: as §2

[7] = test system: P. aeruginosa 1625 ΔmexAB-oprM, ΔmexEF-oprN; assay: MIC, efflux pump mutant; assay type: cell-based, Pseudomonas aeruginosa; settings: Pseudomonas aeruginosa
Protocol: as §2

[8] = molecular target: PBP2 (Klebsiella pneumoniae, UniProt A6T696); assay: Membrane PBP binding assay, competition with Bocillin FL; design: species or system K. pneumoniae ATCC 13883
Protocol: Membrane extracts containing PBPs were obtained as described above. Briefly, all species were grown in 1 L of TSB until the OD600 reached 0.9. The washed pellet was incubated with lysozyme (400 μg/mL), DNase (10 μg/mL) RNase(10 μg/mL) and anti-protease cocktail (200 mg/20 mL). Lysis was done with a French press (20,000 psi) and membrane protein were pelleted by ultracentrifugation steps (100,000 × g). The pellet was suspended in a minimal volume (300–500 μL) of KP 0.05 M buffer at pH 7. The protein concentration in the membrane preparations was determined with the Micro BCA TM Protein Assay Kit (Thermo Fisher Scientific, Rockford, IL) using bovine serum albumin as a standard.
The PBP binding assay was done as described previously[36],[56],[57]. For each antibiotic concentration tested, a quantity of 25 to 40 μg of membrane preparation was used as the source of PBPs, depending on the species. For the purified PaPBP3, 150 ng was used in the assay. First, increasing concentrations of the test antibiotic was added to the membrane or purified PaPBP3 preparations and incubated for 10 min at 30 °C. The reporter molecule Bocillin FL was then added at 12.5 μM for the membrane PBPs preparations and at 500 nM for the pure PaPBP3 samples for an additional 20 min at 30 °C. All reactions were stopped with the addition of the Laemmli-loading buffer (Bio-Rad) containing fresh β-mercaptoethanol (Sigma). All reactions were then heated at 100°C for 3 min before migration on SDS-polyacrylamide discontinuous gel system (7.5% stacking and 10% separating). Control samples without Bocillin FL were also included to highlight autofluorescent proteins that are not PBPs.
To be able to visualize labeled PBPs after electrophoresis, gels were rinsed in water and fixed in a solution of 50% methanol and 7% acetic acid for 30 min. The fluorescent images of gels were obtained with the Typhoon FLA 9500 instrument (GE-Healthcare Bio-Sciences Inc., Baie-d’Urfé, QC, CA) using a 473 nm excitation wavelength. To obtain quantifiable data, the software Quantity One 1D analysis was used (version 4.6.6; Bio-Rad Laboratories, Richmond, CA). The volume (intensity × constant area) of each PBP was measured. […] All IC50 data were obtained from at least two independent PBP binding assays using two different sets of compound concentrations using a linear regression. The PBP profiles were confirmed, and the PBP numbering were determined using published data and individual molecular weights. […] For example, amdinocillin (Sigma) was used for PBP2 identification. […] The IC50 for PBP 2 of P. aeruginosa was measured by including the SDS-PAGE comigrating autofluorescent protein in the background, as done previously.

[9] = ATCC25922, ID-MHBCA + 1 µg/mL supplemental iron
[10] = Acinetobacter baumannii, ATCC19606, ID-MHBCA (−), 0 µg/mL supplemental iron, read-out: MIC
[11] = Acinetobacter baumannii, ATCC19606, ID-MHBCA + 1 µg/mL supplemental iron, read-out: MIC
[12] = Acinetobacter baumannii, ATCC19606, ID-MHBCA, + 200 μg/mL APB, read-out: MIC with β-lactamase inhibitor (βI)
[13] = Acinetobacter baumannii, ATCC19606, MHBCA (+), no inhibitor, read-out: MIC
[14] = Acinetobacter baumannii, ATCC19606, MHBCA, + 200 μg/mL APB, read-out: MIC with β-lactamase inhibitor (βI)
[15] = ID-MHBCA (−), 0 µg/mL supplemental iron, read-out: MIC
[16] = MHBCA (+), no inhibitor, read-out: MIC
[17] = K. pneumoniae ATCC 13883 membranes, read-out: IC50 PBP2
[18] = ATCC25922, ID-MHBCA + 0.1 µg/mL supplemental iron
[19] = ATCC25922, iron-deprived ID-MHBCA (−), 0 µg/mL supplemental iron
[20] = Acinetobacter baumannii, ATCC19606, ID-MHBCA + 0.1 µg/mL supplemental iron, read-out: MIC
[21] = P. aeruginosa 1020, read-out: MIC

PBP2, sequence (A6T696 entry or part of it): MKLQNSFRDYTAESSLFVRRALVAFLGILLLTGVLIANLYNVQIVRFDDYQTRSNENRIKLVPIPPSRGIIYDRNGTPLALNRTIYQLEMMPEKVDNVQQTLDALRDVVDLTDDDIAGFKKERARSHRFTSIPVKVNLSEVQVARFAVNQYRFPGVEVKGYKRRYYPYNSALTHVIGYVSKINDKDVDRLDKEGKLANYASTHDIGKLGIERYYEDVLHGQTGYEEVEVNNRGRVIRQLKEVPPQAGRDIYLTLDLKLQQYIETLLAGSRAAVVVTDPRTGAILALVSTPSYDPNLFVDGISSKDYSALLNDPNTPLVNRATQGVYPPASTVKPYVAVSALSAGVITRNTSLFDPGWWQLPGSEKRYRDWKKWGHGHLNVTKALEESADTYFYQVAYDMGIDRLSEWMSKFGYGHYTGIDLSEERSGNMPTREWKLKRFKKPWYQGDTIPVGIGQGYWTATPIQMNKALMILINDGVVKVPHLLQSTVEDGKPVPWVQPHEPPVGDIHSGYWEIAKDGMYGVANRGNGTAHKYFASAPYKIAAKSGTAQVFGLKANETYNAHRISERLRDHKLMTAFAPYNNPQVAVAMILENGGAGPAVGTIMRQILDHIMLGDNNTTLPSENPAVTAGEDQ

| Compound | MIC [1, 9] [µM] | MIC [2, 10] [µM] | MIC [2, 11] [µM] | MIC [2, 12] [µM] | MIC [2, 13] [µM] | MIC [2, 14] [µM] | MIC [2, 15] [µM] | MIC [2, 16] [µM] | MIC in combination with PAβN ([2]; MHBCA) [µM] | MIC ([3]; ID-MHBCA) [µM] | MIC ([3]; MHBCA) [µM] | MIC [4] [µM] | MIC [6] [µM] | MIC [7] [µM] | IC50 [8, 17] [µM] | MIC [1, 18] [µM] | MIC ([1]; ATCC25922, MHBCA (+)) [µM] | MIC [1, 19] [µM] | MIC ratio 0/1 [1] | MIC ratio 1/0 [1] | also measured |
| --- | --- | --- | --- | --- | --- | --- | --- | --- | --- | --- | --- | --- | --- | --- | --- | --- | --- | --- | --- | --- | --- |
| CC1(C)S[C@@H]2[C@H](NC(=O)[C@H](N)c3ccccc3)C(=O)N2[C@H]1C(=O)O [AMP, ampicillin, reference compound] | 25 | > 200 | > 200 | > 200 | > 200 | > 200 | >200 | >200 | > 200 | 6.3 (≈ 2.2 µg/mL) | 6.3 (≈ 2.2 µg/mL) | 6.3 (≈ 2.2 µg/mL) | > 200 | > 200 | 9.2 ± 1.9 |  |  |  |  |  | MIC [5]; 1020: > 200 µM |
| CC1(C)SC2C(NC(=O)C(NC(=O)CN(CCCCNC(=O)c3cccc(O)c3O)C(=O)c3cccc(O)c3O)c3ccccc3)C(=O)N2C1C(=O)O (stereo not drawn) [BAMP, bis-catechol (azotochelin)-ampicillin] | 0.2 | 0.2 (≈ 0.15 µg/mL) | 1.6 | 0.1 | 0.4 (≈ 0.3 µg/mL) | 0.2 |  |  | > 6.3 | 0.012 (≈ 0.009 µg/mL) | 0.024 (≈ 0.018 µg/mL) | 0.05 (≈ 0.0375 µg/mL) | 0.4 (≈ 0.3 µg/mL) | 0.2 (≈ 0.15 µg/mL) | 5.1 ± 2.1 | 0.1 | 0.1 (≈ 0.075 µg/mL) | 0.05 (≈ 0.0375 µg/mL) | 4 | 4 | MIC ratio unconjugated β-lactam/conjugate [1]: 256; MIC ratio unconjugated β-lactam/conjugate (AMP/BAMP, LOR/BLOR, CEF/MCEF) [1]: 128; MIC [2, 20]: 0.4 µM; MIC ratio unconjugated β-lactam/conjugate ([2]; ID-MHBCA): >1024; MIC ratio 0/1 ([2]; ID-MHBCA): 8; MIC ratio 1/0 ([2]; ID-MHBCA): 8; MIC ratio unconjugated β-lactam/conjugate ([2]; MHBCA): >512; MIC [5, 21]: 0.4 µM (≈ 0.3 µg/mL) |
| O=C(CN(CCCCNC(=O)c1cccc(O)c1O)C(=O)c1cccc(O)c1O)NC(C(=O)NC1C(=O)N2C(C(=O)O)=C(Cl)CCC12)c1ccccc1 (stereo not drawn) [BLOR, bis-catechol (azotochelin)-loracarbef] | 0.1 | 0.024 (≈ 0.018 µg/mL) | 0.4 | 0.012 | 0.05 (≈ 0.0375 µg/mL) | 0.012 |  |  | > 6.3 | 0.006 (≈ 0.0045 µg/mL) | 0.006 (≈ 0.0045 µg/mL) | 0.012 (≈ 0.009 µg/mL) | 6.3 (≈ 4.73 µg/mL) | 6.3 (≈ 4.73 µg/mL) | 33.9 ± 5.6 | 0.05 | 0.024 (≈ 0.018 µg/mL) | 0.012 (≈ 0.009 µg/mL) | 8 | 8 | MIC ratio unconjugated β-lactam/conjugate [1]: 128; MIC ratio unconjugated β-lactam/conjugate (AMP/BAMP, LOR/BLOR, CEF/MCEF) [1]: 128; MIC [2, 20]: 0.1 µM; MIC ratio 0/1 ([2]; ID-MHBCA): 16; MIC ratio 1/0 ([2]; ID-MHBCA): 16; MIC ratio unconjugated β-lactam/conjugate ([2]; MHBCA): >4096; MIC [5, 21]: 6.3 µM (≈ 4.73 µg/mL) |
| N[C@@H](C(=O)N[C@@H]1C(=O)N2C(C(=O)O)=C(Cl)CS[C@H]12)c1ccccc1 [CEF, cefaclor, reference compound] |  | > 200 | > 200 | > 200 | > 200 | > 200 | >200 | >200 | > 200 | 3.1 (≈ 1.14 µg/mL) | 3.1 (≈ 1.14 µg/mL) | 6.3 (≈ 2.32 µg/mL) | > 200 | > 200 |  | 3.1 | 3.1 (≈ 1.14 µg/mL) | 3.1 (≈ 1.14 µg/mL) | 1 | 1 | MIC [5]; 1020: > 200 µM; IC50 [8]: > 50 µM |
